{"source": "patent US20200093103A1", "about": "“BREEDING WATER FOR ANGUILLIFORMES AND METHOD FOR REARING ANGUILLIFORMES” (SHIN NIPPON BIOMEDICAL LABORATORIES, LTD., priority 2016, published 2020)", "tested_on": "Anguilla japonica leptocephali", "assay": "Induction of Anguilla japonica metamorphosis by T4 treatment in 23° C. breeding water", "type": "in vivo", "set-up": "key: L: During life, no characteristics of metamorphosis seen.; Stage 1: Starting phase of metamorphosis. The rostral end is rounded, and intestinal degeneration starts.; Stage 2: Peak phase of metamorphosis. Intestinal degeneration becomes pronounced.; Stage 3: Late phase of metamorphosis.; Stage 4: Pre-glass eel stage. Almost the eel form, but the body height still remains", "from_the_text": "Stage 1: Starting phase of metamorphosis. The rostral end is rounded, and intestinal degeneration starts.\nStage 2: Peak phase of metamorphosis. Intestinal degeneration becomes pronounced. In the second half, the anus reaches to near the last vertical blood vessel (VBV last).\nStage 3: Late phase of metamorphosis. The preanal length (PAL) becomes equal to or shorter than the last vertical blood vessel length (VBV last Length) (PAL VBV last Length). The body height is apparently low.\nStage 4: Pre-glass eel stage. Almost the eel form, but the body height still remains. Melanophores on the body surface or endogenous melanophores are not yet seen.\nElver stage: Juvenile stage. Food intake can be identified.\nA thyroid hormone (e.g., thyroxine (T4)) is adjusted to 50 to 100 mM in a 1- to 2-mL volume messflask. As a solvent, known solvents (water, alcohol) can be used. Ethanol is preferably used as the solvent.\nFor example, using ethanol as a solvent, T4 adjusted to 50 mM is diluted 500-fold, 5,000-fold, and 50,000-fold, respectively, and adjusted to […], 1 μM, and 100 nM. A feed can be prepared in this manner.\nArtificial seawater is added to a breeding vessel, and 1/1000 of the […] T4 is added to prepare […] T4 breeding water.\nHalf of the breeding water is replaced every two days with breeding water of the same concentration. In the case where the concentration is changed, for example, in the case of changing from 10 nM to 2 nM, 80% to the breeding water is removed, and unadjusted artificial seawater is newly added to make 1 L.\nLeptocephali visually considered to have reached a total length of 40 mm (or may be 30 mm to 50 mm, may be 35 mm to 45 mm, or may also be 35 mm or more, 40 mm or more, or 45 mm or more) are selected, anesthetized with 2-phenoxyethanol, and then photographed, and the total length of each larva is measured using an image analyzing device.\nThe larvae are placed in 10 nM T4 breeding water and then placed in an incubator set at 23° C., and breeding is started. In first one week, observation is performed every two days, and half of the 10 nM T4 breeding water is replaced each time. The average amount of thyroid hormone in the breeding water in stage 1 is 1 nM to 100 nM, for example, and may also be 3 nM to 30 nM, or 5 nM to 20 nM.\nFor larvae visually judged to have reached the second half of stage 2, the concentration of the breeding water is changed. The breeding water is diluted 5-fold or 10-fold and adjusted to 2 nM or 1 nM T4, and breeding is continued. The average amount of thyroid hormone in the breeding water in stage 2 may be, as compared with the breeding water of stage 1, diluted 2-fold to 20-fold, diluted 3 to 15-fold, or diluted 5 to 10-fold as described above. The average amount of thyroid hormone in the breeding water in stage 2 is 0.1 nM to 20 nM, for example, and may also be 0.5 nM to 10 nM, 1 nM to 5 nM, or 1 nM to 2 nM.\nFor larvae visually judged to have reached stage 3, the breeding water is quickly changed 0.2 nM T4 breeding water, which is a 5-fold dilution of 1 nM T4 breeding water, and further changed to 0.1 nM T4 breeding water on the following day. […] Also, in larvae whose anus position has not reached the last vertical hemal spine, when they are judged to be on the brink of stage 3, the concentration is changed as above. The average amount of thyroid hormone in the breeding water in stage 3 may be, as compared with the breeding water of stage 2, diluted 2-fold to 50-fold, diluted 3 to 15-fold, diluted 4 to 6-fold, or diluted 5-fold as described above. The average amount of thyroid hormone in the breeding water in stage 3 is 0.01 nM to 2 nM, for example, and may also be 0.05 nM to 1 nM, 0.1 nM to 0.5 nM, or 0.1 nM to 0.2 nM. […] That is, the concentration may be changed such that the thyroid hormone becomes undetectable in the breeding water in the course of stage 3.\nIn stage 3, breeding is continuously performed in the 0.1 nM T4 breeding water. […]"}
{"molecule": "N[C@@H](Cc1cc(I)c(Oc2cc(I)c(O)c(I)c2)c(I)c1)C(=O)O", "note": "[T4, thyroxine]", "values": [{"measurement": "metamorphosis stage", "setting": "individual Exp. 5-6, 174 days old, total length 34.5 mm at start, c3 onward = treatment days 1,3,5,7,8,9,10,11,12,13,14,15,16,17,18,20,22, T4 (nM) 10,10,10,10,10,10,10,2,1,1,0.2,0.1,0.1,0.1,0.1,0.1,0.1, treatment day 11, T4 2 nM", "result": 2}, {"measurement": "metamorphosis stage", "setting": "individual Exp. 5-6, 174 days old, total length 34.5 mm at start, c3 onward = treatment days 1,3,5,7,8,9,10,11,12,13,14,15,16,17,18,20,22, T4 (nM) 10,10,10,10,10,10,10,2,1,1,0.2,0.1,0.1,0.1,0.1,0.1,0.1, treatment day 12, T4 1 nM", "result": 2}, {"measurement": "metamorphosis stage", "setting": "individual Exp. 5-6, 174 days old, total length 34.5 mm at start, c3 onward = treatment days 1,3,5,7,8,9,10,11,12,13,14,15,16,17,18,20,22, T4 (nM) 10,10,10,10,10,10,10,2,1,1,0.2,0.1,0.1,0.1,0.1,0.1,0.1, treatment day 13, T4 1 nM", "result": 2}, {"measurement": "metamorphosis stage", "setting": "individual Exp. 5-6, 174 days old, total length 34.5 mm at start, c3 onward = treatment days 1,3,5,7,8,9,10,11,12,13,14,15,16,17,18,20,22, T4 (nM) 10,10,10,10,10,10,10,2,1,1,0.2,0.1,0.1,0.1,0.1,0.1,0.1, treatment day 14, T4 0.2 nM", "result": 3}, {"measurement": "metamorphosis stage", "setting": "individual Exp. 5-6, 174 days old, total length 34.5 mm at start, c3 onward = treatment days 1,3,5,7,8,9,10,11,12,13,14,15,16,17,18,20,22, T4 (nM) 10,10,10,10,10,10,10,2,1,1,0.2,0.1,0.1,0.1,0.1,0.1,0.1, treatment day 15, T4 0.1 nM", "result": 3}, {"measurement": "metamorphosis stage", "setting": "individual Exp. 5-6, 174 days old, total length 34.5 mm at start, c3 onward = treatment days 1,3,5,7,8,9,10,11,12,13,14,15,16,17,18,20,22, T4 (nM) 10,10,10,10,10,10,10,2,1,1,0.2,0.1,0.1,0.1,0.1,0.1,0.1, treatment day 16, T4 0.1 nM", "result": 3}, {"measurement": "metamorphosis stage", "setting": "individual Exp. 5-6, 174 days old, total length 34.5 mm at start, c3 onward = treatment days 1,3,5,7,8,9,10,11,12,13,14,15,16,17,18,20,22, T4 (nM) 10,10,10,10,10,10,10,2,1,1,0.2,0.1,0.1,0.1,0.1,0.1,0.1, treatment day 17, T4 0.1 nM", "result": 3}, {"measurement": "metamorphosis stage", "setting": "individual Exp. 5-6, 174 days old, total length 34.5 mm at start, c3 onward = treatment days 1,3,5,7,8,9,10,11,12,13,14,15,16,17,18,20,22, T4 (nM) 10,10,10,10,10,10,10,2,1,1,0.2,0.1,0.1,0.1,0.1,0.1,0.1, treatment day 18, T4 0.1 nM", "result": 3}, {"measurement": "metamorphosis stage", "setting": "individual Exp. 5-6, 174 days old, total length 34.5 mm at start, c3 onward = treatment days 1,3,5,7,8,9,10,11,12,13,14,15,16,17,18,20,22, T4 (nM) 10,10,10,10,10,10,10,2,1,1,0.2,0.1,0.1,0.1,0.1,0.1,0.1, treatment day 20, T4 0.1 nM", "result": 3}, {"measurement": "metamorphosis stage", "setting": "individual Exp. 5-6, 174 days old, total length 34.5 mm at start, c3 onward = treatment days 1,3,5,7,8,9,10,11,12,13,14,15,16,17,18,20,22, T4 (nM) 10,10,10,10,10,10,10,2,1,1,0.2,0.1,0.1,0.1,0.1,0.1,0.1, treatment day 22, T4 0.1 nM", "result": 4}, {"measurement": "metamorphosis stage", "setting": "individual Exp. 6-1, 129 days old, total length 40.6 mm at start, c3 onward = treatment days 1,3,5,7,9,10,11,12,13,14,15,16,17,18,19, T4 (nM) 10,10,10,10,2,1,0.2,0.1,0.1,0.1,0.1,0.1,0.1,0.1,0.1, treatment day 1", "result": "L"}, {"measurement": "metamorphosis stage", "setting": "individual Exp. 6-1, 129 days old, total length 40.6 mm at start, c3 onward = treatment days 1,3,5,7,9,10,11,12,13,14,15,16,17,18,19, T4 (nM) 10,10,10,10,2,1,0.2,0.1,0.1,0.1,0.1,0.1,0.1,0.1,0.1, treatment day 3", "result": 1}, {"measurement": "metamorphosis stage", "setting": "individual Exp. 6-1, 129 days old, total length 40.6 mm at start, c3 onward = treatment days 1,3,5,7,9,10,11,12,13,14,15,16,17,18,19, T4 (nM) 10,10,10,10,2,1,0.2,0.1,0.1,0.1,0.1,0.1,0.1,0.1,0.1, treatment day 5", "result": 1}, {"measurement": "metamorphosis stage", "setting": "individual Exp. 6-1, 129 days old, total length 40.6 mm at start, c3 onward = treatment days 1,3,5,7,9,10,11,12,13,14,15,16,17,18,19, T4 (nM) 10,10,10,10,2,1,0.2,0.1,0.1,0.1,0.1,0.1,0.1,0.1,0.1, treatment day 7", "result": 2}, {"measurement": "metamorphosis stage", "setting": "individual Exp. 6-1, 129 days old, total length 40.6 mm at start, c3 onward = treatment days 1,3,5,7,9,10,11,12,13,14,15,16,17,18,19, T4 (nM) 10,10,10,10,2,1,0.2,0.1,0.1,0.1,0.1,0.1,0.1,0.1,0.1, treatment day 9", "result": 2}, {"measurement": "metamorphosis stage", "setting": "individual Exp. 6-1, 129 days old, total length 40.6 mm at start, c3 onward = treatment days 1,3,5,7,9,10,11,12,13,14,15,16,17,18,19, T4 (nM) 10,10,10,10,2,1,0.2,0.1,0.1,0.1,0.1,0.1,0.1,0.1,0.1, treatment day 10", "result": 2}, {"measurement": "metamorphosis stage", "setting": "individual Exp. 6-1, 129 days old, total length 40.6 mm at start, c3 onward = treatment days 1,3,5,7,9,10,11,12,13,14,15,16,17,18,19, T4 (nM) 10,10,10,10,2,1,0.2,0.1,0.1,0.1,0.1,0.1,0.1,0.1,0.1, treatment day 11", "result": 3}, {"measurement": "metamorphosis stage", "setting": "individual Exp. 6-1, 129 days old, total length 40.6 mm at start, c3 onward = treatment days 1,3,5,7,9,10,11,12,13,14,15,16,17,18,19, T4 (nM) 10,10,10,10,2,1,0.2,0.1,0.1,0.1,0.1,0.1,0.1,0.1,0.1, treatment day 12", "result": 3}, {"measurement": "metamorphosis stage", "setting": "individual Exp. 6-1, 129 days old, total length 40.6 mm at start, c3 onward = treatment days 1,3,5,7,9,10,11,12,13,14,15,16,17,18,19, T4 (nM) 10,10,10,10,2,1,0.2,0.1,0.1,0.1,0.1,0.1,0.1,0.1,0.1, treatment day 13", "result": 3}, {"measurement": "metamorphosis stage", "setting": "individual Exp. 6-1, 129 days old, total length 40.6 mm at start, c3 onward = treatment days 1,3,5,7,9,10,11,12,13,14,15,16,17,18,19, T4 (nM) 10,10,10,10,2,1,0.2,0.1,0.1,0.1,0.1,0.1,0.1,0.1,0.1, treatment day 14", "result": 3}, {"measurement": "metamorphosis stage", "setting": "individual Exp. 6-1, 129 days old, total length 40.6 mm at start, c3 onward = treatment days 1,3,5,7,9,10,11,12,13,14,15,16,17,18,19, T4 (nM) 10,10,10,10,2,1,0.2,0.1,0.1,0.1,0.1,0.1,0.1,0.1,0.1, treatment day 15", "result": 3}, {"measurement": "metamorphosis stage", "setting": "individual Exp. 6-1, 129 days old, total length 40.6 mm at start, c3 onward = treatment days 1,3,5,7,9,10,11,12,13,14,15,16,17,18,19, T4 (nM) 10,10,10,10,2,1,0.2,0.1,0.1,0.1,0.1,0.1,0.1,0.1,0.1, treatment day 16", "result": 3}, {"measurement": "metamorphosis stage", "setting": "individual Exp. 6-1, 129 days old, total length 40.6 mm at start, c3 onward = treatment days 1,3,5,7,9,10,11,12,13,14,15,16,17,18,19, T4 (nM) 10,10,10,10,2,1,0.2,0.1,0.1,0.1,0.1,0.1,0.1,0.1,0.1, treatment day 17", "result": 3}, {"measurement": "metamorphosis stage", "setting": "individual Exp. 6-1, 129 days old, total length 40.6 mm at start, c3 onward = treatment days 1,3,5,7,9,10,11,12,13,14,15,16,17,18,19, T4 (nM) 10,10,10,10,2,1,0.2,0.1,0.1,0.1,0.1,0.1,0.1,0.1,0.1, treatment day 18", "result": 3}, {"measurement": "metamorphosis stage", "setting": "individual Exp. 6-1, 129 days old, total length 40.6 mm at start, c3 onward = treatment days 1,3,5,7,9,10,11,12,13,14,15,16,17,18,19, T4 (nM) 10,10,10,10,2,1,0.2,0.1,0.1,0.1,0.1,0.1,0.1,0.1,0.1, treatment day 19", "result": 4}]}
